The values below come from patent US20120034608A1, “MICRORNA AS A BIOMARKER OF PANCREATIC ISLET BETA-CELL ENGAGEMENT” (Merck Sharp & Dohme Corp., priority 2009, published 2012).

In assay [1] the test system is INS-1 832/3 cells. The assay can be described thus: release of miRNAs from INS-1 832/3 cells into culture media (TAQMAN, normalized to U6 RNA). In kind it is cell-based, rat. Particulars: 50 nM GLP-1, after 4 or 8 hours. As to the method:
INS1 832/3 cells were treated with 50 nM GLP-1 (7-37) amide (BACHEM) in RPMI 1640 with 10% FBS and 11 mM glucose in 24-well plates for 4, 8, 16, and 24 hours. Cell culture media was collected, 100 μL out of 1 mL media per sample was used for RNA extraction following the protocol for plasma samples (Mitchell et al., Proc. Natl. Acad. Sci. USA 105: 10513-10518). Briefly, RNA isolation was performed using the mirVana PARIS kit following the manufacturer's protocol (Ambion), except that samples were extracted twice with acid phenol-chloroform. The average of about 80 μL of eluate was recovered from each extraction. A fixed volume of 1.67 μL of the RNA eluate was used as input into the reverse transcription reaction. RNA was reverse transcribed using the TAQMAN miRNA Reverse Transcription Kit and miRNA-specific stem-loop primers in 5 μL volume (Applied BioSystems). About 2.25 μL of diluted PCR product (combining 5 μL RT product with 28.9 μL H2O) was added to 2.75 μL of PCR assay reagents to generate a PCR of 5 μL of total volume. The relative miRNA levels were determined by real-time RT-PCR using the ABI PRISM 7900 Sequence Detection System from Applied Biosystems (Foster City, Calif.) through 40 cycles as described in Example 2. TAQMAN reagents were purchased from Applied Biosystems (Foster City, Calif.). […]
For orientation: Quantitative PCR measures a nucleic acid by following its amplification.

Assay [2] concerns INS-1 832/3 cells. The assay can be described thus: miRNA expression profiling of GLP-1 treated INS-1 832/3 cells (SYBR green qPCR). In kind it is cell-based, rat. The settings on record: 50 nM GLP-1 for 24 hours, 16 mM glucose. As to the method:
Glucagon like peptide-1 (GLP-1) exerts pleiotropic effects on pancreatic β-cell function. GLP-1 potentiates glucose-dependent insulin secretion (GDIS) in pancreatic β-cells. Chronic administration of GLP-1 also promotes insulin synthesis as well as β-cell proliferation and neogenesis, at least in animal models. The detailed underlying mechanism remains to be fully understood. […] The expression levels of 250 microRNAs in INS-1 832/3 cell cultured in the presence or absence of 50 nM GLP-1 for 24 hours were compared using quantitative reverse transcription polymerase chain reaction (RT-PCR) method.
For GLP-1 treatment, GLP-1 (7-37) amide (ABCHEM) was added in the media in the presence of 16 mM glucose for 24 hours.
For microRNA profiling, total RNA was extracted from INS-1 832/3 cells with TRIZOL reagent (Invitrogen, Carlsbad, Calif.). A total of 250 miRNA species were determined by SYBR green quantitative PCR (qPCR) method at Rossetta Inpharmatics (Seattle, Wash.). Quantitative PCR is a method used to detect relative or absolute gene expression level. All qPCR involves the use of fluorescence to detect the threshold cycle (Ct) during PCR when the level of fluorescence gives signal over the background and is in the linear portion of the amplified curve. […] In this example, the Ct value data was calculated into copy number per 10 pg total RNA using the standard curve method. […]

The subject of assay [3] is INS-1 832/3 cells. The assay can be described thus: glucose dependent insulin secretion (GDIS) assay in INS-1 832/3 cells. The format is cell-based, rat. The settings on record: 16 mM glucose, two-hour incubation in KRB. The source says:
We overexpressed the precursors of miR-132 and miR-212 to evaluate their possible contribution to β-cell function. MicroRNA miR-375 was included as a control as it been reported to have an inhibitory effect on GDIS (Poy et al., Nature 432: 226-230 (2004)). Chemically modified Pre-miR™ miRNA precursor molecules and Anti-miR™ miRNA inhibitors were purchased from Ambion (Foster City, Calif.). miRCURY LNA™ microRNA knockdown oligonucleotides were purchased from Exiqon (Woburn, Mass.). The oligonucleotide molecules were delivered to the cells by the Nucleofector Device (Amaxa, Gaithersburg, Md.). In brief, INS-1 cells were trypsinized, centrifuged, and resuspended in 100 μl Nucleofector solution V. Then 100-500 pmole RNA oligonucleotides were transfected to 3-million cells at the concentration of 1-5 μM with the Amaxa Nucleofector Device. Scramble controls from the vendors were used with the same transfection method. After electroporation, the cells were transferred to regular culture medium and then split into replicates in 96-well plates. Insulin secretion assay or LANCE cAMP assay were performed 48 hours post electroporation.
INS-1 cell glucose dependent insulin secretion (GDIS) assay was performed as follows. The GDIS assay was performed with cells grown to near confluency in 96-well plates. Prior to the assay, cells were washed once with PBS and pre-incubated for two hours in freshly prepared Krebs-Ringer Bicarbonate (KRB) medium without glucose. The medium were then replaced with KRB with 2, 8 or 16 mM glucose or along with 10 nM GLP-1. The cells were incubated for another two hours in a CO2 incubator. The media was then removed at the end of incubation, and assayed for insulin levels by Ultra-sensitive Rat Insulin ELISA kit (ALPCO, Salem, N.H.) or insulin immunoassay by Gyrolab workstation (GYROS AB, Uppsala, Sweden). Intracellular insulin was extracted by acid ethanol method for measuring intracellular insulin content. Total protein was measured by Pierce 660 nm Protein Assay from Pierce Biotechnology, Inc. (Rockford, Ill.).

For assay [4], the system named is C57/Bl6 mice. The assay is described as follows: plasma miRNA levels in lean mice after a single injection. In kind it is in vivo, mouse. Particulars: C57/Bl6 mice (FIG. 5 legend). As to the method: The plasma levels of miR-132 and miR-212 were measured in lean mice treated with an oxyntomodulin (OXM) derivative (a long-acting GLP-1 receptor agonist disclosed in Published International Application No. WO2007/100535) before and then 24-hours and 48-hours after a single injection of the OXM derivative. Groups of 16 weeks old mice were dosed with 30 mpk OXM derivative (s.c.) or vehicle (3% mannitol, 75 mM NaCl, 20 mM sodium acetate, pH 5) and approximately 50 μL blood each were collected into EDTA tubes before and 24 hours and 48 hours post-dosing. All the blood samples were immediately placed on ice and plasma were prepared within one hour and stored at −80° C. RNA extraction and TAQMAN RT-PCR analysis were as described in Example 3. 50 μL aliquots of the plasma samples were thawed on ice and 2× Denaturing Solution (Ambion) was added. To allow for normalization for sample variations, three C. elegans miRNAs, cel-miR39, cel-miR54, and cel-miR-238, were added at a final concentration of 20, 200, and 2000 fM (sequence information according to miRBase). miR132, miR-212, and miR-375 expression levels were normalized to spiked-in cel-miR39.

On to GLP-1 (7-37) amide, for which, in assay [1], the “miR-132 in the medium compared to vehicle” value was “remained unchanged” and the “miR-212 in the medium compared to vehicle” value is on record as “remained unchanged”. Besides, the “expression of miR-375, miR-9 and miR-124a” value in assay [2] is “no significant changes”. The “increase of insulin secretion upon treatment with GLP-1” value in assay [3] was “greater than 300%”. In addition, in assay [4], the “plasma levels of miR-132” value was “increased” and the “plasma levels of miR-212” value was “increased”.
